# Experimental data published in patent US9345245B2, “Synthetic compounds for vegetative ABA responses” (THE REGENTS OF THE UNIVERSITY OF CALIFORNIA, priority 2012, dated 2016).
# Legend:
# Arabidopsis seeds = conditions: pyr1 single mutant; Park et al. 2009; cited from earlier work
# ABA-responsive genes [1] = assay: Quantitative RT-PCR of ABA-responsive genes in Arabidopsis; assay type: in vivo
# Experimental: (§1) FIG. 9. LC66C6 induces numerous ABA-responsive genes. […] Ten-day old seedlings were treated with carrier solvent (DMSO) or either 25 μM ABA, pyrabactin or LC66C6 for 8 hours. Total RNA was then prepared labeled and hybridized to ATH1 microarrays. Data plotted are log 2 transformed average expression values for ˜13K probes that were detectable across all experiments. Data shown are averages determined from triplicate biological replicates. (C) and (D) show the expression of a reporter gene in different plant tissues after treatment with vehicle (DMSO), pyrabactin, LC66C6, or (+)-ABA.
# Total RNA was isolated using Plant RNA purification reagent (Invitrogen, USA) according to the manufacturer's instructions. cDNA was synthesized from 1 μg of total RNA using the QantiTec reverse transcription kit (Qiagen, USA). Real-time PCR using Maxima® SYBR Green/Fluorescein qPCR Master Mix (Fermentas) was performed with the iQ5 real-time PCR detection system (Bio-Rad, Hercules, Calif.). The relative amounts of target mRNAs were determined using the relative standard curve method and were normalized by relative amount of internal control mRNA. Biological triplicate experiments were performed.
# PYR/PYL receptors = assay: Yeast two-hybrid agonist assay (PYR/PYL receptor - PP2C HAB1 interaction); assay type: cell-based, Arabidopsis; conditions: 5 uM of test chemicals
# Experimental: FIG. 1. Novel ABA agonists bind to multiple PYR/PYL. (A) Chemical structure of naturally occurring (+)-ABA, its (-) analog and selected ABA agonists. (B) Yeast two-hybrid agonist assays of PYR/PYL receptor sensitivity to 5 uM of test chemicals. Specific PYR/PYL Receptors and the PP2C HAB1 are expressed as Gal4 BD or AD fusion proteins respectively, as described in the text. A previously described yeast two-hybrid system was used in high throughput screens (HTS) to identify ABA agonists (see, Peterson F C, et al. (2010) Structural basis for selective activation of ABA receptors. Nature Structural & Molecular Biology 17(9):1109-1111). In this system the agonist promoted receptor-PP2C interaction drives expression of a URA3 or HIS3 reporter gene and rescues uracil or histidine auxotrophy of parental strains (Peterson F C, et al. (2010); […], Harlow E, & Boeke J D (1996) Reverse two-hybrid and one-hybrid systems to detect dissociation of protein-protein and DNA-protein interactions. Proceedings of the National Academy of Sciences of the United States of America 93(19):10315-10320). HTS were conducted using 5 different reporter strains that express binding domain (BD) fusions to […]3 or PYL4; these were co-expressed with activation domain (AD) fusions to HAB1 (pACT-HAB1); the constructs used have been described previously (Park et al. 2009). […]
# ABA-responsive genes [2] = assay: ATH1 microarray analysis of seedlings; assay type: in vivo, Arabidopsis; conditions: wild-type seedlings; 25 μM
# Experimental: as §1
# Total RNA was isolated using RNAeasy Plant Mini Kit (Qiagen, USA) according to the manufacturer's instructions. cDNA synthesis, labeling and hybridization to the Arabidopsis ATH1 chips (Affymetrix, USA) were performed by the IIGB Core Instrumentation Facility of University of California at Riverside using Affymetrix protocols. Biological triplicate samples were hybridized for DMSO controls, ABA, pyrabactin and quinabactin treatments; compound were applied at 25 μM final concentration and RNA prepared from frozen tissue after 6 hours exposure to compounds or controls. Expression signals for probe sets were calculated and normalized by MASS Statistical Algorithm (Affymetrix, USA). Experimental filtering of array data was performed for the presence of signal in all experiments. […]
# ABA-responsive genes [3] = conditions: higher concentrations; Park et al., 2009; cited from earlier work
# Chlamydomonas = assay: Colony growth of Chlamydomonas with and without salinity and osmotic stress; assay type: in vivo; conditions: in vivo
# Experimental: FIG. 17. The effect of ABA and its agonists in Physcomitrella patens and Chlamydomonas. Protonemal growth images (A) and quantitative analysis (B) of the effects of ABA and agonists on Phsycomitrella patens. Protonema were grown on 200 μM of specific test chemical for 10 days. […] Pyrabactin bleached protonema. (C) The expression of ABA-responsive genes of Physcomitrella patens. Protonema were treated with 200 μM chemical solutions for 3 h. (D) Colony growth of Chlamydomonas on the chemical with salinity stress and osmotic stress. There was no effect of ABA and LC66C6 on the Chlamydomonas growth with and without stresses.
smiles,measurement,setting,value
O=S(=O)(NCc1ccccn1)c1ccc(Br)c2ccccc12 [pyrabactin],germination of pyr1 mutant,Arabidopsis seeds,pyr1 mutant germinates
same,"induction of MAPKKK18, RD29A, and RD29B mRNAs","ABA-responsive genes [1]; Col and Ler ecotypes and pyr1, pyl1, ply2, pyl3 and pyl4 single mutants",did not significantly induce expression of any of the genes assayed
same,"expression of ABF3, GBF3, NCED3, and RD29A",ABA-responsive genes [1]; Col wild-type plants,did not induce significant expression of any genes analyzed
same,expression of RD29B and MAPKKK18 mRNA,ABA-responsive genes [1]; wild-type plants,did not induce gene expression
same,receptor selectivity in yeast two-hybrid assay,PYR/PYL receptors,much greater receptor selectivity than ABA or the new agonist LC66C6
same,genome-wide gene expression pattern compared with ABA,ABA-responsive genes [2],did not induce an expression pattern similar to that of ABA
same,ABA-related gene expression in seedlings,ABA-responsive genes [3],induce modest ABA-related gene expression
same,bleaching of Chlamydomonas (toxicity),Chlamydomonas,bleached the Chlamydomonas
